Laboratory results published in the kinase profiling compilation of Christmann-Franck et al. (2016).

Experiments:
Assay in all cases: KINOMEscan competition binding
Details in all cases: compound 10.0 µM
FES (human) = FES (human) (UniProt P07332)
PRKCE (human) = PRKCE (human) (UniProt Q02156)
IKBKB (human) = IKBKB (human) (UniProt O14920)
RIOK2 (human) = RIOK2 (human) (UniProt Q9BVS4)
MYLK2 (human) = MYLK2 (human) (UniProt Q9H1R3)
SIK3 (human) = SIK3 (human) (UniProt Q9Y2K2)
EPHB3 (human) = EPHB3 (human) (UniProt P54753)
DDR1 (human) = DDR1 (human) (UniProt Q08345)
Sequence of DDR1 (human) (Q08345 whole entry, looked up): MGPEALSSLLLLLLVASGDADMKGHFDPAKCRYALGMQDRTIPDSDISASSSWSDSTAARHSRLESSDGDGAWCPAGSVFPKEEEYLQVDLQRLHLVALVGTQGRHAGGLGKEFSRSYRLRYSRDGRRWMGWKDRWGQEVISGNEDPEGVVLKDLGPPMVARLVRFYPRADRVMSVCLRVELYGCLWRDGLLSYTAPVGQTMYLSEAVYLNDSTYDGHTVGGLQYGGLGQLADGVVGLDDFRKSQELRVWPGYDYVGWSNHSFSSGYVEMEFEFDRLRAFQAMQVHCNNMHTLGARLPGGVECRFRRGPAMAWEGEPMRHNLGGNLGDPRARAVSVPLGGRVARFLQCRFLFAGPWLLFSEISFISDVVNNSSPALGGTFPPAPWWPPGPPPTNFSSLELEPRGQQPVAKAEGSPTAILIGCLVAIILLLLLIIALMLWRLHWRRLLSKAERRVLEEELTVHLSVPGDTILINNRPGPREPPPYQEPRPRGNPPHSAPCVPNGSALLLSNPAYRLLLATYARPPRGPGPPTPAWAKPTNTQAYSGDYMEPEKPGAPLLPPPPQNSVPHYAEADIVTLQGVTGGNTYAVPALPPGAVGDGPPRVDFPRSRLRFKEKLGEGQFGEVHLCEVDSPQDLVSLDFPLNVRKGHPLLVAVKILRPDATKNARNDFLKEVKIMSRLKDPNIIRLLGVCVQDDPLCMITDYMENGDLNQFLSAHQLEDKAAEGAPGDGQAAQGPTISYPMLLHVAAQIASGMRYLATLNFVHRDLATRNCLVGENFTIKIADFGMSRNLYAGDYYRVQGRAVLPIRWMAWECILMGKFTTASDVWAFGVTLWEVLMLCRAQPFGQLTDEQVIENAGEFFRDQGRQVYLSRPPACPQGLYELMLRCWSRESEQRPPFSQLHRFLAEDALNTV

NUAK2 (human) = NUAK2 (human) (UniProt Q9H093)
RPS6KA2 KD1 (human) = RPS6KA2 KD1 (human) (UniProt Q15349)
ACVR2A (human) = ACVR2A (human) (UniProt P27037)
DCLK1 (human) = DCLK1 (human) (UniProt O15075)
Sequence of DCLK1 (human) (O15075 whole entry, looked up): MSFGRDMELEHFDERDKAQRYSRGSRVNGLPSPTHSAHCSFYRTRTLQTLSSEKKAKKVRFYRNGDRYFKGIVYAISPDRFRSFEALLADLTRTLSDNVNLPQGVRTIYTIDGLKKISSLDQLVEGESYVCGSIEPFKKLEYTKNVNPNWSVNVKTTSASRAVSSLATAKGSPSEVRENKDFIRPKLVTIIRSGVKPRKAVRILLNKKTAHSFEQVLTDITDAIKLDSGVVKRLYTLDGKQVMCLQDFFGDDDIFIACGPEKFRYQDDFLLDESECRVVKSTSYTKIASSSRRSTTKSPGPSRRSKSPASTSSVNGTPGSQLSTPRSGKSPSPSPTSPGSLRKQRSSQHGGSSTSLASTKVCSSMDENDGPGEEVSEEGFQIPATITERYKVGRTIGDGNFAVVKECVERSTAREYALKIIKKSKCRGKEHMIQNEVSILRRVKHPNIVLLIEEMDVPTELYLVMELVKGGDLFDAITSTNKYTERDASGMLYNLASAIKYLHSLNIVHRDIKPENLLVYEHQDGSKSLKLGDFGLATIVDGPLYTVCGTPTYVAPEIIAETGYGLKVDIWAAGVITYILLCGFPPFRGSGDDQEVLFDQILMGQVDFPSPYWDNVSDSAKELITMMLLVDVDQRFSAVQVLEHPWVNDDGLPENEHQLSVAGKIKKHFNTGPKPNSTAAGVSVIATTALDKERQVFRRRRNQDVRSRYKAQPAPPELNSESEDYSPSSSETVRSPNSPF

CDK5 (human) = CDK5 (human) (UniProt Q00535)
CSNK1D (human) = CSNK1D (human) (UniProt P48730)
Sequence of CSNK1D (human) (P48730 whole entry, looked up): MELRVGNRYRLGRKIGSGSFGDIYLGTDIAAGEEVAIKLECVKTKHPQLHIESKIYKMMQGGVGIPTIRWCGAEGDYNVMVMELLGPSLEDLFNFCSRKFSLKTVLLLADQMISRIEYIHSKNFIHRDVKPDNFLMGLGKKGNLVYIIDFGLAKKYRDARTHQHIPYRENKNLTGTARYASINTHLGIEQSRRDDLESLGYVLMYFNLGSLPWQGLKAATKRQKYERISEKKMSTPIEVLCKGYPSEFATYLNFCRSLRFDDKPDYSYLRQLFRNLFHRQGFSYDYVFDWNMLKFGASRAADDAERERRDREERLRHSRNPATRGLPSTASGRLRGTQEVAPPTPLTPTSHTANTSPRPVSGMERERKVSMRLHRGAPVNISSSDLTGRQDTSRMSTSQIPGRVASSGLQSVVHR

LRRK2 (human) = LRRK2 (human) (UniProt Q5S007)
MAP2K7 (human) = MAP2K7 (human) (UniProt O14733)
PRKD3 (human) = PRKD3 (human) (UniProt O94806)
MAST1 (human) = MAST1 (human) (UniProt Q9Y2H9)
PAK6 (human) = PAK6 (human) (UniProt Q9NQU5)
NUAK1 (human) = NUAK1 (human) (UniProt O60285)
AKT1 (human) = AKT1 (human) (UniProt P31749)
TSSK1B (human) = TSSK1B (human) (UniProt Q9BXA7)
TBK1 (human) = TBK1 (human) (UniProt Q9UHD2)
PRKD2 (human) = PRKD2 (human) (UniProt Q9BZL6)
Sequence of PRKD2 (human) (Q9BZL6 whole entry, looked up): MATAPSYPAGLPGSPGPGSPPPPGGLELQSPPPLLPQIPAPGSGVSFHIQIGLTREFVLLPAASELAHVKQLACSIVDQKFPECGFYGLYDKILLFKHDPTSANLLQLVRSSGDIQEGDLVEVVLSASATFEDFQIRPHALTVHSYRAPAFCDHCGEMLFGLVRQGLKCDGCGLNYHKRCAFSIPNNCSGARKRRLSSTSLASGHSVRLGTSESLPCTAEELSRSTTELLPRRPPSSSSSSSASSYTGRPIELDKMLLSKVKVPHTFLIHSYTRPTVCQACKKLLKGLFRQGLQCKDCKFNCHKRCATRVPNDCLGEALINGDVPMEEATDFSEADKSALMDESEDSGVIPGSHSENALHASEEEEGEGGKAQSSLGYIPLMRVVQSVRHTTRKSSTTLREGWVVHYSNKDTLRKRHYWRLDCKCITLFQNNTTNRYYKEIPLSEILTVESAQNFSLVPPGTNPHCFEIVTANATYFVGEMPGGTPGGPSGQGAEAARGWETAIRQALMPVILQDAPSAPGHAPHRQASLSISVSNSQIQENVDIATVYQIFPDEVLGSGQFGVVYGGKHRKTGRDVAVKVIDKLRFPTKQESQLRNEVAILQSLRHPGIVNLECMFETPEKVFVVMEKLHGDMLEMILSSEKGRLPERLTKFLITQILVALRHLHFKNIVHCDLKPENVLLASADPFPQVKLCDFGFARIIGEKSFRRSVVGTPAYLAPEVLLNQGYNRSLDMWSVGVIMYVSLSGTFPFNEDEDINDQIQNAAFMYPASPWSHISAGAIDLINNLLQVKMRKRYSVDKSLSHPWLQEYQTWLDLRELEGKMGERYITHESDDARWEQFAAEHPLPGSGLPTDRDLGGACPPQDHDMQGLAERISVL

IGF1R (human) = IGF1R (human) (UniProt P08069)
Sequence of IGF1R (human) (P08069 whole entry, looked up): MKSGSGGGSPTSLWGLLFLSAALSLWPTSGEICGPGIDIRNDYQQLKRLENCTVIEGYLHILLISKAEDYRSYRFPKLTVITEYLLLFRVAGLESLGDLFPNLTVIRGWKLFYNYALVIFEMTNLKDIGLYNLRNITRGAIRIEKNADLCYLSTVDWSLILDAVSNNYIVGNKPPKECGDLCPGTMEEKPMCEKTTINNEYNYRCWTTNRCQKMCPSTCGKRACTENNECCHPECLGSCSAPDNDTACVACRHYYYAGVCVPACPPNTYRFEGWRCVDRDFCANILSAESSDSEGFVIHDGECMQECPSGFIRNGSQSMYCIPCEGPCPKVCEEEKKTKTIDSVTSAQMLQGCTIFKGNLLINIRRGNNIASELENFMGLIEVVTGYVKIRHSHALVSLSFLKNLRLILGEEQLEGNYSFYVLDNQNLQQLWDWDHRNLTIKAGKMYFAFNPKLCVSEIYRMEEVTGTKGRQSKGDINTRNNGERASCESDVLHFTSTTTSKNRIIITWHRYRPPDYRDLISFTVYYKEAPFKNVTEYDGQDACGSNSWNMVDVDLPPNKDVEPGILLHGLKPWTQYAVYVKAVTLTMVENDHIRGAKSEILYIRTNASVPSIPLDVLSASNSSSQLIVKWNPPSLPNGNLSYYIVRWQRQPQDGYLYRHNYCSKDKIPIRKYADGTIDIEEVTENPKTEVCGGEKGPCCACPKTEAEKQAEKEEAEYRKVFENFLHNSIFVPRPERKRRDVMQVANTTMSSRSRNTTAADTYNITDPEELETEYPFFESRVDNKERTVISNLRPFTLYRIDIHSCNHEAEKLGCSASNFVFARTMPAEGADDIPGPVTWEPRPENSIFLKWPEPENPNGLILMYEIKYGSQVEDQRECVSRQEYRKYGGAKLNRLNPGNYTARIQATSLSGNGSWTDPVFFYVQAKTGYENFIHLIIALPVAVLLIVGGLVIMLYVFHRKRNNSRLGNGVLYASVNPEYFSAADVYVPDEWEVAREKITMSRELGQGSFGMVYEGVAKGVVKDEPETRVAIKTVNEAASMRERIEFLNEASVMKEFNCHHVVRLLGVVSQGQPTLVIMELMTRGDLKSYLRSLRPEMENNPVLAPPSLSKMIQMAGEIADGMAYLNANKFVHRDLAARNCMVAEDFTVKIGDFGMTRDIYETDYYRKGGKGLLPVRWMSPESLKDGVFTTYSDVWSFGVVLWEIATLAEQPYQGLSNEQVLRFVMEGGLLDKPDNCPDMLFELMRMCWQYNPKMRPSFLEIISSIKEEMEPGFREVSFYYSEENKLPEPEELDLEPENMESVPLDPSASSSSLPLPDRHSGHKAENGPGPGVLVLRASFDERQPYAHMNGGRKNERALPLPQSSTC

MAP3K13 (human) = MAP3K13 (human) (UniProt O43283)
PKN2 (human) = PKN2 (human) (UniProt Q16513)
STK32C (human) = STK32C (human) (UniProt Q86UX6)
AAK1 (human) = AAK1 (human) (UniProt Q2M2I8)
PLK4 (human) = PLK4 (human) (UniProt O00444)
CDK14 (human) = CDK14 (human) (UniProt O94921)
CDC42BPA (human) = CDC42BPA (human) (UniProt Q5VT25)
AXL (human) = AXL (human) (UniProt P30530)
ACVR1B (human) = ACVR1B (human) (UniProt P36896)
CAMKK1 (human) = CAMKK1 (human) (UniProt Q8N5S9)
MET (human) = MET (human) (UniProt P08581)
EPHB4 (human) = EPHB4 (human) (UniProt P54760)
EPHA6 (human) = EPHA6 (human) (UniProt Q9UF33)
MAPK8 (human) = MAPK8 (human) (UniProt P45983)
NEK5 (human) = NEK5 (human) (UniProt Q6P3R8)

Sequence of IKBKB (human) (O14920 whole entry, looked up): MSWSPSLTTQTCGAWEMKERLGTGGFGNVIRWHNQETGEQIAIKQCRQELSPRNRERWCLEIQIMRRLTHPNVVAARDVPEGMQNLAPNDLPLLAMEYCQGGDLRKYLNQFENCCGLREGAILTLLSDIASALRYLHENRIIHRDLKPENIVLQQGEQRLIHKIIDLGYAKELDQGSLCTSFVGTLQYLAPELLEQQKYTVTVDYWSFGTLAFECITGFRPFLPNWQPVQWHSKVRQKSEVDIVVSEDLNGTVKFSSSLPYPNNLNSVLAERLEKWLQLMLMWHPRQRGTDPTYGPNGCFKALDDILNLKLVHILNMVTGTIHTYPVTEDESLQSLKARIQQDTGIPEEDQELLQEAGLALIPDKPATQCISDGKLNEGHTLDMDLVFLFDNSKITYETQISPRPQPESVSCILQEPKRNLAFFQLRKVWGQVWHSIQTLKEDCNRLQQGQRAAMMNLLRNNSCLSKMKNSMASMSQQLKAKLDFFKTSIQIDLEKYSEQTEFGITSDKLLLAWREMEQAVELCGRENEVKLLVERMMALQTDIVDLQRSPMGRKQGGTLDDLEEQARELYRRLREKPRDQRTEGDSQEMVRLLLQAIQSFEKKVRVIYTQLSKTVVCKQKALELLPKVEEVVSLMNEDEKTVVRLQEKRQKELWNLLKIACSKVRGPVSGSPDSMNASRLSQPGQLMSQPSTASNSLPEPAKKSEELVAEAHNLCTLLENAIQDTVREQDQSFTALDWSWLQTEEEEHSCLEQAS

Question: What does the source list for `COc1ccc(N(C(=O)Oc2c(C)cccc2C)c2ccnc(Nc3ccc(N4CCN(C)CC4)cc3)n2)c(OC)c1`?
Answer: kinase still bound, per cent of control (FES (human)): 0.35%; kinase still bound, per cent of control (PRKCE (human)): 27%; kinase still bound, per cent of control (IKBKB (human)): 93%; kinase still bound, per cent of control (RIOK2 (human)): 83%; kinase still bound, per cent of control (MYLK2 (human)): 0.95%; kinase still bound, per cent of control (SIK3 (human)): 22%; kinase still bound, per cent of control (EPHB3 (human)): 0%; kinase still bound, per cent of control (DDR1 (human)): 0.25%; kinase still bound, per cent of control (NUAK2 (human)): 9.8%; kinase still bound, per cent of control (RPS6KA2 KD1 (human)): 27%; kinase still bound, per cent of control (ACVR2A (human)): 0.75%; kinase still bound, per cent of control (DCLK1 (human)): 84%; kinase still bound, per cent of control (CDK5 (human)): 98%; kinase still bound, per cent of control (CSNK1D (human)): 82%; kinase still bound, per cent of control (LRRK2 (human)): 78%; kinase still bound, per cent of control (MAP2K7 (human)): 85%; kinase still bound, per cent of control (PRKD3 (human)): 11%; kinase still bound, per cent of control (MAST1 (human)): 100%; kinase still bound, per cent of control (PAK6 (human)): 71%; kinase still bound, per cent of control (NUAK1 (human)): 30%; kinase still bound, per cent of control (AKT1 (human)): 100%; kinase still bound, per cent of control (TSSK1B (human)): 87%; kinase still bound, per cent of control (TBK1 (human)): 74%; kinase still bound, per cent of control (PRKD2 (human)): 6.4%; kinase still bound, per cent of control (IGF1R (human)): 100%; kinase still bound, per cent of control (MAP3K13 (human)): 70%; kinase still bound, per cent of control (PKN2 (human)): 19%; kinase still bound, per cent of control (STK32C (human)): 19%; kinase still bound, per cent of control (AAK1 (human)): 13%; kinase still bound, per cent of control (PLK4 (human)): 37%; kinase still bound, per cent of control (CDK14 (human)): 93%; kinase still bound, per cent of control (CDC42BPA (human)): 16%; kinase still bound, per cent of control (AXL (human)): 17%; kinase still bound, per cent of control (ACVR1B (human)): 1%; kinase still bound, per cent of control (CAMKK1 (human)): 88%; kinase still bound, per cent of control (MET (human)): 3.9%; kinase still bound, per cent of control (EPHB4 (human)): 0%; kinase still bound, per cent of control (EPHA6 (human)): 0%; kinase still bound, per cent of control (MAPK8 (human)): 64%; kinase still bound, per cent of control (NEK5 (human)): 85%

Question: For `CCN1CCN(C(=O)Cc2ccc(Nc3ncc(F)c(Nc4ccc(C(=O)Nc5ccccc5Cl)cc4)n3)cc2)CC1`, which kinase still bound, per cent of control (FES (human)) is on record?
Answer: 48%

Question: What about the kinase still bound, per cent of control (PRKCE (human)) of the same compound?
Answer: 100%

Question: And the kinase still bound, per cent of control (IKBKB (human))?
Answer: 27%

Question: And the kinase still bound, per cent of control (RIOK2 (human))?
Answer: 17%

Question: And the kinase still bound, per cent of control (MYLK2 (human))?
Answer: 66%

Question: What about the kinase still bound, per cent of control (SIK3 (human)) of the same compound?
Answer: 68%

Question: And the kinase still bound, per cent of control (EPHB3 (human))?
Answer: 78%

Question: And the kinase still bound, per cent of control (DDR1 (human))?
Answer: 22%

Question: What about the kinase still bound, per cent of control (NUAK2 (human)) of the same compound?
Answer: 23%

Question: And the kinase still bound, per cent of control (RPS6KA2 KD1 (human))?
Answer: 65%

Question: What about the kinase still bound, per cent of control (ACVR2A (human)) of the same compound?
Answer: 2.2%

Question: What about the kinase still bound, per cent of control (DCLK1 (human)) of the same compound?
Answer: 74%

Question: And the kinase still bound, per cent of control (CDK5 (human))?
Answer: 79%

Question: What about the kinase still bound, per cent of control (CSNK1D (human)) of the same compound?
Answer: 100%

Question: What about the kinase still bound, per cent of control (LRRK2 (human)) of the same compound?
Answer: 73%

Question: And the kinase still bound, per cent of control (MAP2K7 (human))?
Answer: 100%

Question: What about the kinase still bound, per cent of control (PRKD3 (human)) of the same compound?
Answer: 100%

Question: And the kinase still bound, per cent of control (MAST1 (human))?
Answer: 100%

Question: What about the kinase still bound, per cent of control (PAK6 (human)) of the same compound?
Answer: 65%

Question: What about the kinase still bound, per cent of control (NUAK1 (human)) of the same compound?
Answer: 18%

Question: And the kinase still bound, per cent of control (AKT1 (human))?
Answer: 100%

Question: And the kinase still bound, per cent of control (TSSK1B (human))?
Answer: 100%

Question: And the kinase still bound, per cent of control (TBK1 (human))?
Answer: 5.6%

Question: What about the kinase still bound, per cent of control (PRKD2 (human)) of the same compound?
Answer: 100%

Question: What about the kinase still bound, per cent of control (IGF1R (human)) of the same compound?
Answer: 46%

Question: What about the kinase still bound, per cent of control (MAP3K13 (human)) of the same compound?
Answer: 44%

Question: And the kinase still bound, per cent of control (PKN2 (human))?
Answer: 100%

Question: And the kinase still bound, per cent of control (STK32C (human))?
Answer: 77%

Question: And the kinase still bound, per cent of control (AAK1 (human))?
Answer: 7%

Question: What about the kinase still bound, per cent of control (PLK4 (human)) of the same compound?
Answer: 0.25%

Question: And the kinase still bound, per cent of control (CDK14 (human))?
Answer: 53%

Question: And the kinase still bound, per cent of control (CDC42BPA (human))?
Answer: 100%

Question: And the kinase still bound, per cent of control (AXL (human))?
Answer: 2.1%

Question: And the kinase still bound, per cent of control (ACVR1B (human))?
Answer: 45%

Question: What about the kinase still bound, per cent of control (CAMKK1 (human)) of the same compound?
Answer: 25%

Question: What about the kinase still bound, per cent of control (MET (human)) of the same compound?
Answer: 8.6%

Question: And the kinase still bound, per cent of control (EPHB4 (human))?
Answer: 76%

Question: What about the kinase still bound, per cent of control (EPHA6 (human)) of the same compound?
Answer: 46%

Question: And the kinase still bound, per cent of control (MAPK8 (human))?
Answer: 1.7%

Question: What about the kinase still bound, per cent of control (NEK5 (human)) of the same compound?
Answer: 7.9%

Question: For `COc1cc2ncnc(-n3nc(-c4ccccn4)nc3N)c2cc1OC`, which kinase still bound, per cent of control (FES (human)) is on record?
Answer: 99%

Question: And the kinase still bound, per cent of control (PRKCE (human))?
Answer: 65%

Question: And the kinase still bound, per cent of control (IKBKB (human))?
Answer: 45%

Question: And the kinase still bound, per cent of control (RIOK2 (human))?
Answer: 2%

Question: What about the kinase still bound, per cent of control (MYLK2 (human)) of the same compound?
Answer: 61%

Question: What about the kinase still bound, per cent of control (SIK3 (human)) of the same compound?
Answer: 83%

Question: What about the kinase still bound, per cent of control (EPHB3 (human)) of the same compound?
Answer: 56%

Question: And the kinase still bound, per cent of control (DDR1 (human))?
Answer: 88%

Question: What about the kinase still bound, per cent of control (NUAK2 (human)) of the same compound?
Answer: 37%

Question: And the kinase still bound, per cent of control (RPS6KA2 KD1 (human))?
Answer: 76%

Question: And the kinase still bound, per cent of control (ACVR2A (human))?
Answer: 66%

Question: What about the kinase still bound, per cent of control (DCLK1 (human)) of the same compound?
Answer: 36%

Question: What about the kinase still bound, per cent of control (CDK5 (human)) of the same compound?
Answer: 100%

Question: And the kinase still bound, per cent of control (CSNK1D (human))?
Answer: 2.8%

Question: What about the kinase still bound, per cent of control (LRRK2 (human)) of the same compound?
Answer: 41%

Question: And the kinase still bound, per cent of control (MAP2K7 (human))?
Answer: 77%

Question: And the kinase still bound, per cent of control (PRKD3 (human))?
Answer: 42%

Question: And the kinase still bound, per cent of control (MAST1 (human))?
Answer: 73%

Question: What about the kinase still bound, per cent of control (PAK6 (human)) of the same compound?
Answer: 55%

Question: And the kinase still bound, per cent of control (NUAK1 (human))?
Answer: 100%

Question: And the kinase still bound, per cent of control (AKT1 (human))?
Answer: 100%

Question: And the kinase still bound, per cent of control (TSSK1B (human))?
Answer: 60%

Question: What about the kinase still bound, per cent of control (TBK1 (human)) of the same compound?
Answer: 24%

Question: And the kinase still bound, per cent of control (PRKD2 (human))?
Answer: 65%

Question: And the kinase still bound, per cent of control (IGF1R (human))?
Answer: 100%

Question: What about the kinase still bound, per cent of control (MAP3K13 (human)) of the same compound?
Answer: 96%

Question: And the kinase still bound, per cent of control (PKN2 (human))?
Answer: 79%

Question: And the kinase still bound, per cent of control (STK32C (human))?
Answer: 44%

Question: What about the kinase still bound, per cent of control (AAK1 (human)) of the same compound?
Answer: 6.9%

Question: And the kinase still bound, per cent of control (PLK4 (human))?
Answer: 0.2%

Question: What about the kinase still bound, per cent of control (CDK14 (human)) of the same compound?
Answer: 62%

Question: And the kinase still bound, per cent of control (CDC42BPA (human))?
Answer: 99%

Question: And the kinase still bound, per cent of control (AXL (human))?
Answer: 6%

Question: And the kinase still bound, per cent of control (ACVR1B (human))?
Answer: 14%

Question: What about the kinase still bound, per cent of control (CAMKK1 (human)) of the same compound?
Answer: 17%

Question: What about the kinase still bound, per cent of control (MET (human)) of the same compound?
Answer: 55%

Question: What about the kinase still bound, per cent of control (EPHB4 (human)) of the same compound?
Answer: 22%

Question: What about the kinase still bound, per cent of control (EPHA6 (human)) of the same compound?
Answer: 23%

Question: What about the kinase still bound, per cent of control (MAPK8 (human)) of the same compound?
Answer: 12%

Question: And the kinase still bound, per cent of control (NEK5 (human))?
Answer: 26%
